Source: ChEMBL document CHEMBL4385638, “Synthesis and biological evaluation of 1-alkylaminomethyl-1,1-bisphosphonic acids against Trypanosoma cruzi and Toxoplasma gondii” (Bioorg Med Chem, 2019)
pEC50, pIC50: −log10 of the molar value.

Assays:
[1] = tested on: Toxoplasma gondii; experiment: Antiparasitic activity against Toxoplasma gondii tachyzoites infected in human TerT cells assessed as decrease in parasite viability by red fluorescent protein based fluorescence method; format: functional; conditions: read-out: ED50 (the source's name)
[2] = tested on: Trypanosoma cruzi; experiment: Antiparasitic activity against Trypanosoma cruzi amastigote infected in African green monkey Vero cells decrease in parasite viability measured at day 3 of post infection by red fluorescent protein based fluorescence method; format: functional; conditions: 72 h, read-out: ED50 (the source's name)
[3] = biological target: T1, Farnesyl diphosphate synthase (Trypanosoma cruzi, UniProt Q8WS26); experiment: Inhibition of Trypanosoma cruzi FPPS using DMAPP as substrate incubated for 30 mins measured by scintillation counting
T1 sequence (Q8WS26 whole entry): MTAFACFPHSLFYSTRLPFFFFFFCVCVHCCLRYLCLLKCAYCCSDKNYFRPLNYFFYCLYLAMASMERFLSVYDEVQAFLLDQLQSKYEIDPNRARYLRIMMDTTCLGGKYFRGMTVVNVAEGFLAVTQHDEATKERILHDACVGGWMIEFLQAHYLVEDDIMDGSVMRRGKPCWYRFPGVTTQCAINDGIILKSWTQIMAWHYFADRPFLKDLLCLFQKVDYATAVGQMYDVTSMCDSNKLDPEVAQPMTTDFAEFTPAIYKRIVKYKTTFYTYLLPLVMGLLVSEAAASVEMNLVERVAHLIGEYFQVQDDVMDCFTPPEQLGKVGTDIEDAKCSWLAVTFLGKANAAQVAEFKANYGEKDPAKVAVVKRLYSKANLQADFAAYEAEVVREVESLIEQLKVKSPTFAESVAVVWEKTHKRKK

[4] = Cytotoxicity against African green monkey Vero cells assessed as decrease in cell viability after 3 to 4 days by alamar blue assay; format: cell-based; conditions: chlorocebus sabaeus, read-out: ED50 (the source's name)
[5] = biological target: T2, Farnesyl diphosphate synthase (Toxoplasma gondii, UniProt Q197X6); experiment: Inhibition of Toxoplasma gondii FPPS using DMAPP as substrate incubated for 30 mins measured by scintillation counting
T2 sequence (Q197X6 whole entry): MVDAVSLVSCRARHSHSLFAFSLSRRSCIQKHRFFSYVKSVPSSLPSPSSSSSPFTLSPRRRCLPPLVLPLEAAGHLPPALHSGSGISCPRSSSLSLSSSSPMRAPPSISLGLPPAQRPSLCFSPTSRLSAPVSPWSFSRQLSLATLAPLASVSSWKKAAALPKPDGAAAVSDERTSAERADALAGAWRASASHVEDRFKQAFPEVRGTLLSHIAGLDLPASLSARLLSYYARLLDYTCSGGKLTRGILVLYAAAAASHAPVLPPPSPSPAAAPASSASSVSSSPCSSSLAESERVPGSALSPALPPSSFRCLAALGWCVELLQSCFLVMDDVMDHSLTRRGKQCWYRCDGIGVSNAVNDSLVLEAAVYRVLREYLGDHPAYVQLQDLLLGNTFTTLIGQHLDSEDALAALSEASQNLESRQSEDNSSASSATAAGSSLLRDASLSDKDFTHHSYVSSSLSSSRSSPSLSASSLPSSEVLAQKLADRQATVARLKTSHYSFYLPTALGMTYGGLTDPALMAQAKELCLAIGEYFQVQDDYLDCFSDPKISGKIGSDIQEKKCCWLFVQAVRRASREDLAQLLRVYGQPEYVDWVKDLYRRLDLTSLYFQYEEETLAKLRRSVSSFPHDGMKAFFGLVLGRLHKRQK

[6] = tested on: Vero; experiment: Cytotoxicity against African green monkey Vero cells assessed as decrease in cell viability at 5 to 10 uM after 3 to 4 days by alamar blue assay; format: cell-based; conditions: chlorocebus sabaeus
[7] = tested on: Vero; experiment: Cytotoxicity against African green monkey Vero cells assessed as decrease in cell viability at 2.5 uM after 3 to 4 days by alamar blue assay; format: cell-based; conditions: chlorocebus sabaeus
[8] = tested on: Toxoplasma gondii; experiment: Antiparasitic activity against Toxoplasma gondii RH tachyzoites infected in ip dosed Webster mouse assessed as increase in survival rate administered daily starting on day 6 post infection for 10 days and measured 30 days post infection (reference value: 9 to 12 days); format: functional

Row | SMILES | pEC50 [1] | pEC50 [2] | pIC50 [3] | pIC50 [5] | further results
1 | CCCCNCC(F)(P(=O)(O)O)P(=O)(O)O | < 5.00 | < 5.00 | 6.76 | 6.54 | CC50 [4]: > 200 µM
2 | CCCCCCCCCCCS(=O)(=O)CC(P(=O)(O)O)P(=O)(O)O | 6.42 | – | – | – | –
3 | CCCCCCCCCCCNC(P(=O)(O)O)P(=O)(O)O | – | – | – | – | Activity [6]: Toxic; Activity [7]: Non-Toxic; CC50 [4]: 10 µM
4 | CCCCCCCCCCCCNCC(P(=O)(O)O)P(=O)(O)O | 5.21 | – | – | – | –
5 | O=C(Cn1ccnc1[N+](=O)[O-])NCc1ccccc1 [BENZNIDAZOLE] | – | 5.59 | – | – | –
6 | CCCCCCCCCCC[S+]([O-])CC(P(=O)(O)O)P(=O)(O)O (centres undefined) | 6.28 | – | – | – | –
7 | CCCCCCCCCNCC(F)(P(=O)(O)O)P(=O)(O)O | 5.65 | – | 7.47 | 7.29 | CC50 [4]: 15 µM
8 | CCCCCCCNCC(F)(P(=O)(O)O)P(=O)(O)O | < 5.00 | < 5.00 | 7.15 | 7.06 | –
9 | CCCNCC(F)(P(=O)(O)O)P(=O)(O)O | – | < 5.00 | 7.22 | 6.61 | –
10 | CCCCCCNCC(F)(P(=O)(O)O)P(=O)(O)O | < 5.00 | < 5.00 | 6.04 | 6.88 | –
11 | CC1CCC(NCC(P(=O)(O)O)P(=O)(O)O)CC1 (centres undefined) | < 4.70 | – | – | – | –
12 | CCCCCCCCC(F)(P(=O)(O)O)P(=O)(O)O | 5.57 | < 5.00 | < 6.00 | – | –
13 | CCCCCCNCC(P(=O)(O)O)P(=O)(O)O | 5.03 | – | – | – | –
14 | O=P(O)(O)C(CNC1CCCCCC1)P(=O)(O)O | < 4.70 | – | – | – | –
15 | CCCCCCCCCCSCC(P(=O)(O)O)P(=O)(O)O | 5.74 | – | – | – | –
16 | CCCCCCCCCCS(=O)(=O)CC(P(=O)(O)O)P(=O)(O)O | 6.96 | – | – | 6.57 | ED50 [8]: 0.02 mg/kg
17 | CCCCCCCCCCCSCC(P(=O)(O)O)P(=O)(O)O | 6.27 | – | – | – | –
18 | CCCCCCCCCCNCC(F)(P(=O)(O)O)P(=O)(O)O | 5.65 | – | 6.87 | 7.10 | CC50 [4]: 20 µM
19 | CCCCCCCCCC(F)(P(=O)(O)O)P(=O)(O)O | < 5.00 | < 5.00 | < 6.00 | – | –
20 | CCCCCCCC[S+](C)CC(P(=O)(O)O)P(=O)(O)O (centres undefined) | 5.15 | – | – | – | –
21 | O=P(O)(O)C(CNC1CCCC1)P(=O)(O)O | < 4.70 | – | – | – | –
22 | CCCCCCCCCCCCS(=O)(=O)CC(P(=O)(O)O)P(=O)(O)O | 6.03 | – | – | – | –
23 | CCCCCCCSCC(P(=O)(O)O)P(=O)(O)O | 6.01 | < 4.70 | – | – | –
24 | CCCCCCCCNCC(O)(P(=O)(O)O)P(=O)(O)O | 5.70 | < 5.00 | < 5.00 | – | –
25 | CCCCCNCC(F)(P(=O)(O)O)P(=O)(O)O | < 5.00 | < 5.00 | 6.21 | 6.52 | –
26 | CCCCCCCNCC(P(=O)(O)O)P(=O)(O)O | < 4.30 | 5.00 | – | – | –
27 | CCCCCCCCNCC(F)(P(=O)(O)O)P(=O)(O)O | 5.40 | < 5.00 | 7.07 | 7.10 | CC50 [4]: 162 µM
